Reference: the supplement of paper PMC5579334

Assays:
S462 = assay: relative IC50 (inflection point of fitted dose-response curve, CellTiter-Glo viability, 72 h; top asymptote may be below 50% inhibition); higher = less potent
Outline: (§1)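 MPNST cell lines and primary human Schwann cells (750–1000 cells per well) went into 384-well plates preprinted with each compound at five concentrations in 10-fold steps. Plates were incubated 72 h at 37 °C, 5% CO2. Viability was read as CellTiter-Glo ATP luminescence, scaled between vehicle and positive-control wells, with duplicates averaged where present. Percent inhibition is at the top concentration; drug sensitivity score and relative IC50 (censored at top concentration) come from four-parameter logistic fits.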

YST-1 = assay: as above
Outline: as §1

HSC1 [1] = assay: as above
Outline: as §1

STS26T [2] = assay: as above
Outline: as §1

S1507-2 [3] = assay: as above
Outline: as §1

HS-PSS [4] = assay: as above
Outline: as §1

ST8814 [5] = assay: as above
Outline: as §1

HS-Sch-2 = assay: as above
Outline: as §1

HSC2 [6] = assay: as above
Outline: as §1

HSC1 [7] = assay: relative IC50 (inflection point of fitted dose-response curve, CellTox-Green cytotoxicity, 72 h; top asymptote may be below 50%); higher = less potent
Outline: (§2)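 MPNST cell lines and primary human Schwann cells were incubated 72 h at 37 °C in 384-well plates holding five 10-fold compound dilutions. CellTox-Green was added before seeding at a final 1:1000 dilution and reported fluorescence from DNA released by disrupted cells. Signals were scaled to vehicle and positive-control wells, and cultures failing plate quality control were dropped. Drug sensitivity score and relative IC50 come from four-parameter logistic fits, with IC50 censored at the top concentration.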

STS26T [8] = assay: as above
Outline: as §2

S1507-2 [9] = assay: as above
Outline: as §2

HS-PSS [10] = assay: as above
Outline: as §2

HSC2 [11] = assay: as above
Outline: as §2

ST8814 [12] = assay: as above
Outline: as §2

Cc1cc2c(C(C)C)c(O)c(O)c(C=O)c2c(O)c1-c1c(C)cc2c(C(C)C)c(O)c(O)c(C=O)c2c1O [AT 101]
relative IC50 (S462): 3790 nM
relative IC50 (YST-1): 5300 nM
relative IC50 (HSC1 [1]): 3720 nM
relative IC50 (STS26T [2]): 8980 nM
relative IC50 (S1507-2 [3]): 16300 nM
relative IC50 (HS-PSS [4]): 15300 nM
relative IC50 (ST8814 [5]): 7150 nM
relative IC50 (HS-Sch-2): 5350 nM
relative IC50 (HSC2 [6]): 1740 nM
relative IC50 (HSC1 [7]): 10700 nM
relative IC50 (STS26T [8]): > 100000 nM
relative IC50 (S1507-2 [9]): > 100000 nM
relative IC50 (HS-PSS [10]): 30300 nM
relative IC50 (HSC2 [11]): > 100000 nM

COc1ccc(-c2ccc3c(N4CCOC[C@@H]4C)nc(N4CCOC[C@@H]4C)nc3n2)cc1CO [AZD8055]
relative IC50 (S462): 24.8 nM
relative IC50 (YST-1): 20.5 nM
relative IC50 (HSC1 [1]): 29.9 nM
relative IC50 (STS26T [2]): 69.5 nM
relative IC50 (S1507-2 [3]): 51.1 nM
relative IC50 (HS-PSS [4]): 91.7 nM
relative IC50 (ST8814 [5]): 138 nM
relative IC50 (HS-Sch-2): 83.3 nM
relative IC50 (HSC2 [6]): 28 nM
relative IC50 (HSC1 [7]): > 10000 nM
relative IC50 (STS26T [8]): > 10000 nM
relative IC50 (S1507-2 [9]): > 10000 nM
relative IC50 (HSC2 [11]): > 10000 nM

Nc1nccc(-c2c(-c3ccc(F)cc3)ncn2C2CCCCC2)n1
relative IC50 (S462): > 10000 nM
relative IC50 (YST-1): 800 nM
relative IC50 (HSC1 [1]): > 10000 nM
relative IC50 (STS26T [2]): > 10000 nM
relative IC50 (S1507-2 [3]): > 10000 nM
relative IC50 (HS-Sch-2): 3780 nM
relative IC50 (HSC2 [6]): > 10000 nM
relative IC50 (HSC1 [7]): > 10000 nM
relative IC50 (S1507-2 [9]): > 10000 nM
relative IC50 (ST8814 [12]): > 10000 nM
relative IC50 (HSC2 [11]): > 10000 nM

Cc1ccc(NC(=O)c2ccc(CN3CCN(C)CC3)cc2)cc1Nc1nc(-c2cccnc2)cs1 [Masitinib]
relative IC50 (S462): 3300 nM
relative IC50 (YST-1): 2330 nM
relative IC50 (HSC1 [1]): 3400 nM
relative IC50 (STS26T [2]): 3370 nM
relative IC50 (S1507-2 [3]): 2060 nM
relative IC50 (HS-PSS [4]): 1830 nM
relative IC50 (ST8814 [5]): 3230 nM
relative IC50 (HS-Sch-2): 3270 nM
relative IC50 (HSC2 [6]): 2600 nM
relative IC50 (HSC1 [7]): 3820 nM
relative IC50 (STS26T [8]): 3340 nM
relative IC50 (S1507-2 [9]): 3510 nM
relative IC50 (HS-PSS [10]): 3850 nM
relative IC50 (ST8814 [12]): 3220 nM

COc1cc2c(NC3CCN(C(C)C)CC3)nc(N3CCC(F)(F)CC3)nc2cc1OCCCN1CCCC1 [UNC0642]
relative IC50 (S462): 2690 nM
relative IC50 (YST-1): 3190 nM
relative IC50 (STS26T [2]): 3060 nM
relative IC50 (S1507-2 [3]): 1940 nM
relative IC50 (HS-PSS [4]): 2600 nM
relative IC50 (ST8814 [5]): 2970 nM
relative IC50 (HS-Sch-2): 2880 nM
relative IC50 (HSC2 [6]): > 10000 nM
relative IC50 (HSC1 [7]): > 10000 nM
relative IC50 (STS26T [8]): 2910 nM
relative IC50 (S1507-2 [9]): 2900 nM
relative IC50 (HS-PSS [10]): 2960 nM
relative IC50 (ST8814 [12]): 3020 nM
relative IC50 (HSC2 [11]): > 10000 nM

C[C@H]1C=C2C(=O)O[C@H]3CC[C@@H](C1)[C@@]23O [Galiellalactone]
relative IC50 (S462): 8040 nM
relative IC50 (YST-1): 9960 nM
relative IC50 (HSC1 [1]): 5260 nM
relative IC50 (STS26T [2]): 7720 nM
relative IC50 (S1507-2 [3]): 9350 nM
relative IC50 (HS-PSS [4]): 6450 nM
relative IC50 (ST8814 [5]): 10100 nM
relative IC50 (HS-Sch-2): 4620 nM
relative IC50 (HSC2 [6]): 9860 nM
relative IC50 (STS26T [8]): 14600 nM
relative IC50 (S1507-2 [9]): 15700 nM
relative IC50 (HS-PSS [10]): > 25000 nM
relative IC50 (ST8814 [12]): > 50000 nM
relative IC50 (HSC2 [11]): > 50000 nM

O=C(NC[C@H](O)CO)c1ccncc1Nc1ccc(I)cc1F [Pimasertib]
relative IC50 (S462): 507 nM
relative IC50 (YST-1): 3800 nM
relative IC50 (HSC1 [1]): 730 nM
relative IC50 (STS26T [2]): 241 nM
relative IC50 (S1507-2 [3]): 476 nM
relative IC50 (HS-PSS [4]): 2390 nM
relative IC50 (ST8814 [5]): 971 nM
relative IC50 (HS-Sch-2): 962 nM
relative IC50 (HSC2 [6]): 846 nM
relative IC50 (S1507-2 [9]): 2160 nM
relative IC50 (HS-PSS [10]): > 10000 nM
relative IC50 (ST8814 [12]): 2060 nM
relative IC50 (HSC2 [11]): > 10000 nM

Nc1ccccc1NC(=O)c1ccc(CNC(=O)OCc2cccnc2)cc1 [Entinostat]
relative IC50 (S462): 1500 nM
relative IC50 (YST-1): 1240 nM
relative IC50 (HSC1 [1]): 2340 nM
relative IC50 (STS26T [2]): 2740 nM
relative IC50 (S1507-2 [3]): 2680 nM
relative IC50 (HS-PSS [4]): 3730 nM
relative IC50 (ST8814 [5]): 3700 nM
relative IC50 (HS-Sch-2): 3410 nM
relative IC50 (HSC2 [6]): 2560 nM
relative IC50 (HSC1 [7]): > 10000 nM
relative IC50 (S1507-2 [9]): 3240 nM
relative IC50 (ST8814 [12]): 3640 nM
relative IC50 (HSC2 [11]): > 10000 nM

Cn1cncc1[C@@](N)(c1ccc(Cl)cc1)c1ccc2c(c1)c(-c1cccc(Cl)c1)cc(=O)n2C [Tipifarnib]
relative IC50 (S462): 510 nM
relative IC50 (YST-1): 175 nM
relative IC50 (HSC1 [1]): 1350 nM
relative IC50 (STS26T [2]): 351 nM
relative IC50 (S1507-2 [3]): 97.5 nM
relative IC50 (HS-PSS [4]): 683 nM
relative IC50 (ST8814 [5]): 366 nM
relative IC50 (HS-Sch-2): 1510 nM
relative IC50 (HSC2 [6]): 585 nM
relative IC50 (STS26T [8]): 342 nM
relative IC50 (S1507-2 [9]): > 10000 nM
relative IC50 (HS-PSS [10]): > 10000 nM
relative IC50 (HSC2 [11]): > 10000 nM

COc1cc2c(cc1O)CC[C@@H]1[C@@H]2CC[C@]2(C)[C@@H](O)CC[C@@H]12 [2-methoxyestradiol]
relative IC50 (S462): 747 nM
relative IC50 (YST-1): 1650 nM
relative IC50 (HSC1 [1]): 1170 nM
relative IC50 (STS26T [2]): 922 nM
relative IC50 (S1507-2 [3]): 1860 nM
relative IC50 (HS-PSS [4]): 3060 nM
relative IC50 (ST8814 [5]): 2580 nM
relative IC50 (HS-Sch-2): 841 nM
relative IC50 (HSC2 [6]): 1230 nM
relative IC50 (STS26T [8]): 1020 nM
relative IC50 (S1507-2 [9]): 1660 nM
relative IC50 (HS-PSS [10]): > 10000 nM
relative IC50 (ST8814 [12]): 3130 nM
relative IC50 (HSC2 [11]): 1500 nM

Cc1c(Cn2c(C)nc3c(C(=O)O)cc(N4CCOCC4)cc32)cccc1C(F)(F)F
relative IC50 (S462): > 10000 nM
relative IC50 (YST-1): > 10000 nM
relative IC50 (HSC1 [1]): > 10000 nM
relative IC50 (S1507-2 [3]): 931 nM
relative IC50 (HS-Sch-2): > 10000 nM
relative IC50 (HSC2 [6]): > 10000 nM
relative IC50 (HSC1 [7]): > 10000 nM
relative IC50 (STS26T [8]): > 10000 nM
relative IC50 (S1507-2 [9]): > 10000 nM
relative IC50 (HS-PSS [10]): > 10000 nM
relative IC50 (ST8814 [12]): > 10000 nM
relative IC50 (HSC2 [11]): > 10000 nM

c1ccc2c(CCNc3ccc(Nc4ccncc4)cc3)c[nH]c2c1 [Serdemetan]
relative IC50 (S462): 1150 nM
relative IC50 (YST-1): 876 nM
relative IC50 (HSC1 [1]): 1370 nM
relative IC50 (STS26T [2]): 2440 nM
relative IC50 (S1507-2 [3]): 1620 nM
relative IC50 (HS-PSS [4]): 2710 nM
relative IC50 (ST8814 [5]): 887 nM
relative IC50 (HS-Sch-2): 3740 nM
relative IC50 (HSC2 [6]): 1350 nM
relative IC50 (STS26T [8]): 3310 nM
relative IC50 (S1507-2 [9]): 2810 nM
relative IC50 (HS-PSS [10]): 3240 nM
relative IC50 (ST8814 [12]): 865 nM
relative IC50 (HSC2 [11]): > 10000 nM

CS(=O)(=O)c1ccc(C(=O)Nc2ccc(Cl)c(-c3ccccn3)c2)c(Cl)c1 [Vismodegib]
relative IC50 (S462): > 10000 nM
relative IC50 (HSC1 [1]): > 10000 nM
relative IC50 (STS26T [2]): > 10000 nM
relative IC50 (S1507-2 [3]): > 10000 nM
relative IC50 (ST8814 [5]): > 10000 nM
relative IC50 (HSC2 [6]): > 10000 nM
relative IC50 (STS26T [8]): > 10000 nM
relative IC50 (S1507-2 [9]): > 10000 nM
relative IC50 (HS-PSS [10]): > 10000 nM
relative IC50 (ST8814 [12]): > 10000 nM
relative IC50 (HSC2 [11]): > 10000 nM

CC[C@H](CC#N)OC(=O)N[C@@H](C)c1cccc(NC(=O)Nc2ccc(-c3cnco3)c(OC)c2)c1 [AVN944]
relative IC50 (S462): 320 nM
relative IC50 (YST-1): 317 nM
relative IC50 (HSC1 [1]): 108 nM
relative IC50 (STS26T [2]): 398 nM
relative IC50 (S1507-2 [3]): 500 nM
relative IC50 (HS-PSS [4]): 309 nM
relative IC50 (ST8814 [5]): 614 nM
relative IC50 (HS-Sch-2): 640 nM
relative IC50 (HSC2 [6]): 93.4 nM
relative IC50 (HSC1 [7]): > 10000 nM
relative IC50 (S1507-2 [9]): > 10000 nM
relative IC50 (HS-PSS [10]): > 10000 nM
relative IC50 (ST8814 [12]): 886 nM
relative IC50 (HSC2 [11]): > 10000 nM
